{
  "source": "paper PMC8342458",
  "about": "“GluN2A and GluN2B NMDA receptors use distinct allosteric routes” (Nature Communications, 2021)",
  "key": {"[1]": {"molecular_target": "T1, GluN1/GluN2B-N218C receptors (UniProt P35439+Q01097, N218C)", "T1 construct": "For full-length multimeric membrane-embedded receptors studied in cellulo, as done in the present work; expressed in transfected cells; host or cells: Xenopus laevis oocytes", "T1 sequence (Q01097 27-1482 N218C, other chains not shown)": "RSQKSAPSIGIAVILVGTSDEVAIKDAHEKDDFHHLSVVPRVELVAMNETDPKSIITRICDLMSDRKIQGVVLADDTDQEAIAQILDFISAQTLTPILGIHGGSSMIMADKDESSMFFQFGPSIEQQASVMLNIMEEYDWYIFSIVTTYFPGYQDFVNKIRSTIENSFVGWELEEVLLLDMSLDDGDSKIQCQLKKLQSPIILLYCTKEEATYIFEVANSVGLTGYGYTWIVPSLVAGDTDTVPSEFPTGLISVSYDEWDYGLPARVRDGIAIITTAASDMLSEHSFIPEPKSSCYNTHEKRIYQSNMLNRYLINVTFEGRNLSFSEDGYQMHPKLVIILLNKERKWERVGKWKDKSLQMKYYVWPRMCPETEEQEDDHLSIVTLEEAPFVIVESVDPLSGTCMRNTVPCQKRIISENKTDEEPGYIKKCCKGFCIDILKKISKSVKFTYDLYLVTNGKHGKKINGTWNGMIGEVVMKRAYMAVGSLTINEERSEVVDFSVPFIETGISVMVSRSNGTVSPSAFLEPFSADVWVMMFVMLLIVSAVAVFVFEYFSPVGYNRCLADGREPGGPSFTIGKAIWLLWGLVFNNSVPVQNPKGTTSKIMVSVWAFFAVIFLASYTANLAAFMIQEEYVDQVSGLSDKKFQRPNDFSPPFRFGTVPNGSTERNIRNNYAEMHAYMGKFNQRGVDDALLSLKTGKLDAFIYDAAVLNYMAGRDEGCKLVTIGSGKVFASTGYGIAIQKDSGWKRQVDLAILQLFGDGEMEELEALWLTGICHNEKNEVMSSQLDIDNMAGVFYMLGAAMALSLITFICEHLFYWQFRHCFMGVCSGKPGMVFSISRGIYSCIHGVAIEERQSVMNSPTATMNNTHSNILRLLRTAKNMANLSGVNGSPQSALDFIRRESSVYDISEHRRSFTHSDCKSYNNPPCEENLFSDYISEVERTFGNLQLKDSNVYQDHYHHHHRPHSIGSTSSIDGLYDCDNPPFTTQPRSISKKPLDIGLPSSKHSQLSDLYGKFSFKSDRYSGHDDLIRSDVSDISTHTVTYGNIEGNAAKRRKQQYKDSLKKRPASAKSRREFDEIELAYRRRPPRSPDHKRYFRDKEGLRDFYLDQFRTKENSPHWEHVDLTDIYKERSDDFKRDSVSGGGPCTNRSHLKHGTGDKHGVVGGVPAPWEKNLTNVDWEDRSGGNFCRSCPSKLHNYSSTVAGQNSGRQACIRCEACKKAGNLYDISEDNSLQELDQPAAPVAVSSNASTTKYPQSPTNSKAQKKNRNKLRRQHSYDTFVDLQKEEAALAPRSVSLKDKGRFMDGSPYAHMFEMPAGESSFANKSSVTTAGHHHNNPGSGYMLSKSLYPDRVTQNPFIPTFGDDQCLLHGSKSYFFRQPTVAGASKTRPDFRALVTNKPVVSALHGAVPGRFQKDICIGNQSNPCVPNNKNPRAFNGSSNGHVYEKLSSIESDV", "experiment": "TEVC recordings in Xenopus oocytes, zinc and ifenprodil inhibition dose-response", "type": "cell-based, rat (GluN1), mouse (GluN2B)", "experimental": "(§1) The pcDNA3-based expression plasmids for rat GluN1-1a (named GluN1 herein), rat GluN2A, and mouse GluN2B (also known as ε2) subunits, Pfu-based site-directed mutagenesis strategy, and sequencing procedure have been described previously[68],[69]. Incorporation of the unnatural amino acids (UAAs) AzF and BzF into NMDARs was performed using the genetic code expansion methodology as previously described[52],[53],[83]. The plasmid pSVB.Yam carrying the gene encoding the amber suppressor tRNA derived from B. stearothermophilus Tyr-tRNACUA, while the aminoacyl-tRNA synthetases (aaRS) construction for AzF and BzF derived from E. coli TyrRS[84],[85].\n(§2) Recombinant NMDARs were expressed in Xenopus laevis oocytes after nuclear injection of 36 nl of a mixture of cDNAs (at 10–30 ng/μl) encoding various GluN1 and GluN2 subunits (ratio 1:1). Oocytes were prepared, injected, incubated, and voltage-clamped as described previously. For UAA incorporation, oocytes were co-injected with 36 nl of a cDNA mixture encoding for of GluN1, GluN2, Yam, and aaRS as follows, unless otherwise indicated in the text: GluN1-K178amber (120 ng/μl), GluN2A (80 ng/µl) or GluN2B (120 ng/μl), Yam (10 ng/μl), AzF-RS (5 ng/μl). After injection, oocytes were incubated at 19 °C in a Barth solution containing (in mM) 88 NaCl, 1 KCl, 0.33 Ca(NO3)2, 0.41 CaCl2, 0.82 MgSO4, 2.4 NaHCO3, 10 HEPES (pH adjusted to 7.6 with NaOH) supplemented with gentamicin ([…]) and the NMDAR glutamate binding site competitive antagonist D-APV (50 μM). AzF and BzF were added to the incubation medium at final concentrations of 1 mM and 2 mM, respectively.\n(§3) For all experiments, except those on pH and spermine sensitivity, the standard external solution contained (in mM): 100 NaCl, 0.3 BaCl2, and 5 HEPES (pH adjusted to 7.3 with KOH). […] For the pH and spermine sensitivity experiments, an external solution enriched in HEPES was used to insure proper pH buffering. Unless otherwise mentioned, NMDAR-mediated currents were induced by simultaneously applications of saturating concentrations of glutamate and glycine (100 μM each). Glutamate and glycine dose-response curves (DRC) were performed in the presence of 100 µM glycine and 100 µM glutamate, respectively. Recordings were performed at a holding potential of −60 mV and at room temperature. Data were collected and analyzed using Clampex 10.5 and Clampfit 10.5 (Molecular Devices), respectively, and fitted using KaleidaGraph 4.0 (Synergy software).\n(§4) EC50 and nH were fitted as free parameters. […] For proton DRC, corrections for small shifts in the reference potential of bath electrodes and analysis of the data were performed as previously described. Spermine experiments were performed and analyzed as previously described. In brief, spermine sensitivity was assessed at pH 6.5 and at a holding potential of −30 mV to maximize the spermine induced potentiation. […] EC50, a and nH were set as free parameters. MK-801 is an NMDAR open channel blocker with slow reversibility and, consequently, the rate at which MK-801 inhibits NMDAR responses depends on the level of channel activity, that is, channel open probability (Po). Based on this principle, MK-801 is classically used to estimate the level of NMDAR channel activity in macroscopic whole-cell recordings[36],[47],[56],[86],[87]. Note, however, that MK- 801 inhibition kinetics can index relative, not absolute, Po. MK-801 solutions (10 nM for GluN2A-containing receptors and 50 nM for GluN2B-containing receptors) were prepared by dilution of a stock solution (50 mM) into the agonist containing solutions. MK-801 time constants of inhibition (τon) were obtained by fitting currents with a single-exponential component to a time window corresponding to 10–90% of maximum inhibition. On-rate (kon) constants were then calculated assuming a pseudo first-order reaction scheme: kon = 1 / ([MK-801]*τon)."}, "[2]": {"molecular_target": "T2, GluN1-N512C-L777C/GluN2B-E517C-L781C receptors (UniProt P35439+Q01097, E517C/L777C/L781C/N521C)", "T2 construct": "For full-length multimeric membrane-embedded receptors studied in cellulo, as done in the present work; expressed in transfected cells; host or cells: Xenopus laevis oocytes", "T2 sequence (Q01097 27-1482 E517C/L781C, other chains not shown)": "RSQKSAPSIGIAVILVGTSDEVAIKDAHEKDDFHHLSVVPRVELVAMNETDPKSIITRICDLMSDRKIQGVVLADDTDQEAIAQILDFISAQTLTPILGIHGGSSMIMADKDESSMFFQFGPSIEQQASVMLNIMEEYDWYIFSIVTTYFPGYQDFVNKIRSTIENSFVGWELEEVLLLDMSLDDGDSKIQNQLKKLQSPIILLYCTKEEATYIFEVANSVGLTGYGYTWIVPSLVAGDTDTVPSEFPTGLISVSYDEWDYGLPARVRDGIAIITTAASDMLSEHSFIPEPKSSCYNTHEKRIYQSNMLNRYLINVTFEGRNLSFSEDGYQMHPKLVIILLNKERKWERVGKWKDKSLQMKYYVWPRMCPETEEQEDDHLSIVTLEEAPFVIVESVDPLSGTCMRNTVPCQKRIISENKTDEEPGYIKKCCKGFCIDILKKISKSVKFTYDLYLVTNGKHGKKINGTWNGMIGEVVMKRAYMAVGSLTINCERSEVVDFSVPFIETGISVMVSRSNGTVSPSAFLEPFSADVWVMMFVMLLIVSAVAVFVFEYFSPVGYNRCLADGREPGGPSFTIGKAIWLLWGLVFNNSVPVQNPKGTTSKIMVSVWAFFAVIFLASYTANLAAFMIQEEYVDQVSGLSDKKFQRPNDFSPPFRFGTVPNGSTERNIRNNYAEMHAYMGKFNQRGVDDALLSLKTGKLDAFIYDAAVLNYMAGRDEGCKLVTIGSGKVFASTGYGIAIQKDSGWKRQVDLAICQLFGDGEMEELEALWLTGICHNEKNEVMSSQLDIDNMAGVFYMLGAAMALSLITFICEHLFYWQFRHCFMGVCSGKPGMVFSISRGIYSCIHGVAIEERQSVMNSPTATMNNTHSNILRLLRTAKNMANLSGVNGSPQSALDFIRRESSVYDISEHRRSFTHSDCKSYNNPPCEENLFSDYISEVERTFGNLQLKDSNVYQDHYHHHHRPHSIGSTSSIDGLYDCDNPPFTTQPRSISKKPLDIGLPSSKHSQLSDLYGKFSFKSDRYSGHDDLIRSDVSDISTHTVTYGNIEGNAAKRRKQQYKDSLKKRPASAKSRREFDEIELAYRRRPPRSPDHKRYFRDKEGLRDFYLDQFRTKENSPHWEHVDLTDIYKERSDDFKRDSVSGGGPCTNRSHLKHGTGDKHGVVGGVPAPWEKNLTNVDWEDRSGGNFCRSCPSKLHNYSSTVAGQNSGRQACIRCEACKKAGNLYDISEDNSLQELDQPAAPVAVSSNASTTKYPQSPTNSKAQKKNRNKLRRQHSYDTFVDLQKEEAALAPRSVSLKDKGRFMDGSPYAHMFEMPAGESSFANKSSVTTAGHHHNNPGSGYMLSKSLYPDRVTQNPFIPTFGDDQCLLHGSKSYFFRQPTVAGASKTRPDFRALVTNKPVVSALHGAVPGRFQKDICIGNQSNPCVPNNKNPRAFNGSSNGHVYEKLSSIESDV", "experiment": "TEVC recordings in Xenopus oocytes, zinc and ifenprodil inhibition dose-response", "type": "cell-based, rat (GluN1), mouse (GluN2B)", "experimental": "as §1, §2, §3, §4"}, "[3]": {"molecular_target": "T3, GluN1-L777C/GluN2B-E517C-L781C receptors (UniProt P35439+Q01097, E517C/L777C/L781C/N521C)", "T3 construct": "For full-length multimeric membrane-embedded receptors studied in cellulo, as done in the present work; expressed in transfected cells; host or cells: Xenopus laevis oocytes", "experiment": "TEVC recordings in Xenopus oocytes, zinc and ifenprodil inhibition dose-response", "type": "cell-based, rat (GluN1), mouse (GluN2B)", "details": "read-out: Zn2+ IC50", "experimental": "as §1, §2, §3, §4"}, "[4]": {"molecular_target": "T4, GluN1-K178AzF/GluN2B receptors (UniProt P35439+Q01097, K178F)", "T4 construct": "For full-length multimeric membrane-embedded receptors studied in cellulo, as done in the present work; expressed in transfected cells; host or cells: Xenopus laevis oocytes, co-injected with amber suppressor tRNA (Yam) and AzF-RS", "experiment": "TEVC recordings in Xenopus oocytes, modulator sensitivity before and after UV photocrosslinking", "type": "cell-based, rat (GluN1), mouse (GluN2B)", "details": "for Izn/Io 0.1 μM: 0.1 μM zinc; for Izn/Io 1 μM: 1 μM zinc; for Izn/Io 10 μM: 10 μM zinc", "experimental": "as §1, §2, §3, §4"}, "[5]": {"molecular_target": "T5, GluN1/GluN2A-V217C receptors (Rattus norvegicus, UniProt P35439+Q00959, V217C)", "T5 construct": "For full-length multimeric membrane-embedded receptors studied in cellulo, as done in the present work; expressed in transfected cells; host or cells: Xenopus laevis oocytes", "T5 sequence (Q00959 23-1464 V217C, other chains not shown)": "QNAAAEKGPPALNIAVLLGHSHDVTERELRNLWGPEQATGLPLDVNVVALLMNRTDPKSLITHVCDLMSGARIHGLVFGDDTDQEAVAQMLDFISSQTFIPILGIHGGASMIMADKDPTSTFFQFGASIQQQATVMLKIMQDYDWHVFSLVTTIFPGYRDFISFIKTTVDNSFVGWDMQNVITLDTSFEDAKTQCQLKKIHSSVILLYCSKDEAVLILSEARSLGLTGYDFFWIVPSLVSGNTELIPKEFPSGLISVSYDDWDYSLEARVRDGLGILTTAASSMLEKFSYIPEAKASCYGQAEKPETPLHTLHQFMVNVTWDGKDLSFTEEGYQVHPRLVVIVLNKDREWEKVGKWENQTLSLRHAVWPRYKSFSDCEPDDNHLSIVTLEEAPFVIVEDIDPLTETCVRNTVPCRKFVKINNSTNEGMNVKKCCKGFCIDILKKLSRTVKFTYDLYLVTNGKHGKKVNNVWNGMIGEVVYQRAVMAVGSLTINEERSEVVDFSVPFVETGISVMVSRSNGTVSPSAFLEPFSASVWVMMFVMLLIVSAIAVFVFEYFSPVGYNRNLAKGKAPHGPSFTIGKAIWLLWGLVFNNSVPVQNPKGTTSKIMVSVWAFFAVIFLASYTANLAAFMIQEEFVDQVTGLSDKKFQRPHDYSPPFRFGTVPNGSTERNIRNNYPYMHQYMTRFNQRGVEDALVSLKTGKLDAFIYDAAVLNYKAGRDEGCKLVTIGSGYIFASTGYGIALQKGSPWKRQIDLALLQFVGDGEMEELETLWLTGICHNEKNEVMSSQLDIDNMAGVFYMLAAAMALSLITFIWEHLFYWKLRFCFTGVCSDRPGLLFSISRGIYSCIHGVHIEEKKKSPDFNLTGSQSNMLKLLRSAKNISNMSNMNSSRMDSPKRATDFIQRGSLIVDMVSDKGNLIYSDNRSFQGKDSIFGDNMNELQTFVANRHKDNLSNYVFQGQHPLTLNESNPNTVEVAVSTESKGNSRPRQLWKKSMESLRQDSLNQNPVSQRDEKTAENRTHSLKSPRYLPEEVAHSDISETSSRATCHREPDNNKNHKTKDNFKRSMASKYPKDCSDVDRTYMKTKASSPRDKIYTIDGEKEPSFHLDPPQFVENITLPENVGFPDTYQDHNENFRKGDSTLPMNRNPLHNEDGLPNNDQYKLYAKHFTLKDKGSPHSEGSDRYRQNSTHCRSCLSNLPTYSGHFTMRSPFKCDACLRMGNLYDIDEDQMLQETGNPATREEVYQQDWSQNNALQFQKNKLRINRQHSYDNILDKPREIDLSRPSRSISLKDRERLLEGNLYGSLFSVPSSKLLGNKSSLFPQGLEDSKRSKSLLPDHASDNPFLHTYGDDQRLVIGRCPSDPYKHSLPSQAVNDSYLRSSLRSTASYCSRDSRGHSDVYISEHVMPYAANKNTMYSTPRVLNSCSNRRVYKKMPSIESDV", "experiment": "TEVC recordings in Xenopus oocytes, zinc inhibition dose-response", "type": "cell-based", "experimental": "as §1, §2, §3, §4"}, "[6]": {"molecular_target": "T6, wild-type (wt) GluN1/GluN2B receptors (UniProt P35439+Q01097)", "T6 construct": "For full-length multimeric membrane-embedded receptors studied in cellulo, as done in the present work; expressed in transfected cells; host or cells: Xenopus laevis oocytes (nuclear cDNA injection, pcDNA3 plasmids)", "experiment": "TEVC recordings in Xenopus oocytes, allosteric modulator sensitivity", "type": "cell-based, rat (GluN1), mouse (GluN2B)", "experimental": "as §1, §2, §3, §4"}},
  "note": "Several values for one entry are separate records, joined by “and”; a condition that tells them apart may be missing. Equal entries are not always repeated.",
  "data": [
    {"smiles": "[Zn+2]", "note": "[zinc]", "values": [
      {"measurement": "Zn2+ Hill slope (nH)", "setting": "[1]", "value": "1.01 ± 0.01"},
      {"measurement": "Izn/Io 0.1 μM", "setting": "[1]; 0.1 μM zinc", "value": "0.95 ± 0.07"},
      {"measurement": "Izn/Io 1 μM", "setting": "[1]; 1 μM zinc", "value": "0.72 ± 0.08"},
      {"measurement": "Izn/Io 10 μM", "setting": "[1]; 10 μM zinc", "value": "0.22 ± 0.07"},
      {"measurement": "IC50", "setting": "[1]; read-out: Zn2+ IC50", "value": "3060 ± 40", "unit": "nM"},
      {"measurement": "Zn2+ Hill slope (nH)", "setting": "[2]", "value": "0.88 ± 0.05"},
      {"measurement": "Izn/Io 0.1 μM", "setting": "[2]; 0.1 μM zinc", "value": "0.78 ± 0.07"},
      {"measurement": "Izn/Io 0.3 μM", "setting": "[2]; 0.3 μM zinc", "value": "0.60 ± 0.03"},
      {"measurement": "Izn/Io 1 μM", "setting": "[2]; 1 μM zinc", "value": "0.40 ± 0.03"},
      {"measurement": "Izn/Io 3 μM", "setting": "[2]; 3 μM zinc", "value": "0.23 ± 0.03"},
      {"measurement": "Izn/Io 10 μM", "setting": "[2]; 10 μM zinc", "value": "0.10 ± 0.03"},
      {"measurement": "IC50", "setting": "[3]", "value": "720 ± 50", "unit": "nM"},
      {"measurement": "Izn/Io 0.1 μM", "setting": "[4]; +UV", "value": "0.97 ± 0.02"},
      {"measurement": "Izn/Io 0.1 μM", "setting": "[4]; -UV", "value": "0.73 ± 0.09"},
      {"measurement": "Izn/Io 1 μM", "setting": "[4]; +UV", "value": "0.86 ± 0.03"},
      {"measurement": "Izn/Io 1 μM", "setting": "[4]; -UV", "value": "0.33 ± 0.05"},
      {"measurement": "Izn/Io 10 μM", "setting": "[4]; +UV", "value": "0.45 ± 0.08"},
      {"measurement": "Izn/Io 10 μM", "setting": "[4]; -UV", "value": "0.04 ± 0.01"},
      {"measurement": "Zn2+ Hill slope (nH)", "setting": "[4]; after UV", "value": "0.91 ± 0.02"},
      {"measurement": "Zn2+ Hill slope (nH)", "setting": "[4]; before UV", "value": "1.02 ± 0.02"},
      {"measurement": "increase in zinc IC50 following UV treatment", "setting": "[4]; post-UV vs pre-UV", "value": "~ 15 fold"},
      {"measurement": "Zn2+ Hill slope (nH)", "setting": "[5]", "value": "0.44 ± 0.08"},
      {"measurement": "maximal level of zinc inhibition", "setting": "[5]", "value": 40, "unit": "%"},
      {"measurement": "Izn/Io 1 nM", "setting": "[5]; 1 nM zinc", "value": "0.86 ± 0.03"},
      {"measurement": "Izn/Io 10 nM", "setting": "[5]; 10 nM zinc", "value": "0.78 ± 0.03"},
      {"measurement": "Izn/Io 50 nM", "setting": "[5]; 50 nM zinc", "value": "0.70 ± 0.03"},
      {"measurement": "Izn/Io 500 nM", "setting": "[5]; 500 nM zinc", "value": "0.65 ± 0.03"},
      {"measurement": "Izn/Io 1000 nM", "setting": "[5]; 1000 nM zinc", "value": "0.64 ± 0.04"},
      {"measurement": "IC50", "setting": "[5]; read-out: Zn2+ IC50", "value": "4.64 ± 1.78", "unit": "nM"},
      {"measurement": "Zn2+ Hill slope (nH)", "setting": "[6]", "value": "1.08 ± 0.04 and 1.20 ± 0.04 and 0.96 ± 0.10"},
      {"measurement": "Izn/Io 0.1 μM", "setting": "[6]; 0.1 μM zinc", "value": "0.80 ± 0.02 and 0.87 ± 0.02 and 0.78 ± 0.01"},
      {"measurement": "Izn/Io 0.3 μM", "setting": "[6]; 0.3 μM zinc", "value": "0.54 ± 0.03"},
      {"measurement": "Izn/Io 1 μM", "setting": "[6]; 1 μM zinc", "value": "0.39 ± 0.005 and 0.46 ± 0.03 and 0.37 ± 0.03"},
      {"measurement": "Izn/Io 3 μM", "setting": "[6]; 3 μM zinc", "value": "0.18 ± 0.09"},
      {"measurement": "IC50", "setting": "[6]; read-out: Zn2+ IC50", "value": "720 nM and 970 nM and 590 nM"}
    ]}
  ]
}
